Results taken from the supplement of paper PMC8988213.
Structures can show the parent of a compound that is named as a salt.

What was measured:
[1] = tested on: ID211 patient-derived PDAC 2D line (post-FOLFIRINOX); experiment: normalised area under dose-response curve (viability relative to DMSO, 7 doses up to 10 µM) (fraction (AUC)); higher = less sensitive (more viability retained); conditions: 72 h; top dose: 10 µM
In short: (§1)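 SelleckChem library compounds were tested for 72 h at seven concentrations (3-fold steps, highest 10 µM) on patient-derived 2D PDAC cells grown out from organoids. These cells had been robotically placed at 1,500–3,000 cells/well in 96-well plates and incubated overnight at 37°C with 5% CO2, and luminescence from CellTiter-Glo was recorded after 10 min. The GRmetrics R package gave the area under the dose-response curve from viability normalised to control wells.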

[2] = tested on: ID188 patient-derived PDAC 2D line (pre-FOLFIRINOX); experiment: as above; conditions: 72 h; top dose: 10 µM
In short: as §1

| SMILES | normalised area under dose-response curve [1] | normalised area under dose-response curve [2] |
| --- | --- | --- |
| O=C(Nc1cccnc1)N1CCC(Cc2cccc(Oc3ccc(C(F)(F)F)cn3)c2)CC1 [PF-3845] | 0.912 | 0.905 |
| Cc1sc2c(c1C)C(c1ccc(Cl)cc1)=N[C@@H](CC(=O)Nc1ccc(O)cc1)c1nnc(C)n1-2 [OTX015] | 0.631 | 0.817 |
| CCOC(=O)c1ccc(N2NC(=O)C(=Cc3ccc([N+](=O)[O-])o3)C2=O)cc1 [PYR-41] | 0.807 | 0.91 |
| COc1cc(C(C)=O)ccc1O [Apocynin] | 0.816 | 0.915 |
| CC[C@@]1(O)C(=O)OCc2c1cc1n(c2=O)Cc2cc3c(CN(C)C)c(O)ccc3nc2-1 [Topotecan HCl] | 0.464 | 0.523 |
| N.N.[Cl][Pt][Cl] [Cisplatin] | 0.86 | 0.95 |
| Cc1ccccc1C(C(=O)NC1CCCCC1)N(C(=O)Cn1ccnc1C)c1cccc(F)c1 (stereo not given) [AGI-5198] | 0.804 | 0.972 |
| CC(C)(C#N)c1ccc(N2C(=O)OCc3cnc4ccc(-c5cnc6ccccc6c5)cc4c32)cc1 | 0.804 | 0.825 |
| COC(=O)c1ccc2c(c1)NC(=O)/C2=C(\Nc1ccc(N(C)C(=O)CN2CCN(C)CC2)cc1)c1ccccc1 [Nintedanib (BIBF 1120)] | 0.86 | 0.915 |
| C=CC(=O)Nc1cccc(Nc2nc(Nc3ccc(OCCOC)cc3)ncc2F)c1 [Spebrutinib (CC-292, AVL-292)] | 0.888 | 0.709 |
| CCNC(=O)C#Cc1ccc2c(C(=Nc3ccc(CN(C)C)cc3)c3ccccc3)c(O)[nH]c2c1 | 0.264 | 0.621 |
| O=c1[nH]cnc2[nH]ncc12 [Allopurinol Sodium] | 0.843 | 0.951 |
| Cc1nc(C(=O)NCC(=O)O)c(O)c2ccc(Oc3ccccc3)cc12 [Roxadustat (FG-4592)] | 0.842 | 0.951 |
| CCn1c(=O)c(-c2cc[nH]n2)cc2c(C)nc(N)nc21 | 0.792 | 0.814 |
| O=C(c1cc(Cc2n[nH]c(=O)c3ccccc23)ccc1F)N1CCN(C(=O)C2CC2)CC1 | 0.865 | 0.917 |
| O=C(Nc1ccccc1-c1cn2c(CN3CCNCC3)csc2n1)c1cnc2ccccc2n1 [SRT1720 HCl] | 0.812 | 0.865 |
| COc1cccc2c1C(=O)c1c(O)c3c(c(O)c1C2=O)CC(O)(C(=O)CO)CC3OC1CC(N)C(O)C(C)O1 (stereo not given) [Doxorubicin (Adriamycin) HCl] | 0.584 | 0.672 |
| Cc1c(CN2CCC(Nc3ncnc4sc(CC(F)(F)F)cc34)CC2)ccc2[nH]c(C#N)cc12 [MI-463] | 0.825 | 0.713 |

| SMILES | normalised area under dose-response curve [1] | normalised area under dose-response curve [2] |
| --- | --- | --- |
| Cc1cc(C)nc(NS(=O)(=O)c2ccc(NC(=S)NC(=O)COc3ccc(Br)cc3Cl)cc2)n1 [ZCL278] | 0.777 | 0.928 |
| COc1nnc2ccc(N3CCC(c4ccc(OCCN5CCN(C)C(=O)[C@H]5C)cc4)CC3)nn12 [AZD5153] | 0.59 | 0.723 |
| CC(=O)Nc1nc(C)c(-c2ccc(Cl)c(S(=O)(=O)NCCO)c2)s1 [PIK-93] | 0.807 | 0.927 |
| O=C1NC(=O)C(c2cnc3ccccn23)=C1c1cn2c3c(cc(F)cc13)CN(C(=O)N1CCCCC1)CC2 | 0.259 | 1.04 |
| CC(C)c1ccc2c(c1)c(SC(C)(C)C)c(CC(C)(C)C(=O)O)n2Cc1ccc(Cl)cc1 [MK-886 (L-663,536)] | 0.843 | 0.989 |
| CN1CCC(CNc2ccc3ncc(-c4cccc(OC(F)(F)F)c4)n3n2)CC1 [SGI-1776 free base] | 0.788 | 0.949 |
| C[C@@H](N)[C@H]1CC[C@H](C(=O)Nc2ccncc2)CC1 | 0.922 | 0.941 |
| CCc1cc(Nc2nccc(-c3c(-c4ccc(OC)c(C(=O)Nc5c(F)cccc5F)c4)nc4ccccn34)n2)c(OC)cc1N1CCC(N2CCN(S(C)(=O)=O)CC2)CC1 | 0.829 | 0.94 |
| Cc1[nH]c2ccccc2c1CCNCc1ccc(/C=C/C(=O)NO)cc1 [Panobinostat (LBH589)] | 0.306 | 0.421 |
| COCC1(CO)C(=O)C2CCN1CC2 (stereo not given) [APR-246 (PRIMA-1MET)] | 0.86 | 0.947 |
| C=CC(=O)N1C/C(=C\c2ccc([N+](=O)[O-])cc2)C(=O)/C(=C/c2ccc([N+](=O)[O-])cc2)C1 [b-AP15] | 0.671 | 0.504 |
| COc1cc2c(cc1OC)CN(CCc1ccc(NC(=O)c3cccc4c(=O)c5cccc(OC)c5[nH]c34)cc1)CC2 | 0.682 | 1.02 |
| O=C(NCC(=O)N1CCCC1)Nc1ccc2cnccc2c1 [SGC707] | 0.863 | 0.955 |
| Cc1[nH]c(/C=C2\C(=O)Nc3ccccc32)c(C)c1CCC(=O)O [Orantinib (TSU-68, SU6668)] | 0.843 | 0.845 |
| CN1CCN(c2ccc(Nc3ncc4cc(C#N)c(=O)n(C5CCCC5)c4n3)cc2)CC1 | 0.852 | 0.98 |
| CC1(N)CCN(c2cnc(-c3cccc(Cl)c3Cl)c(N)n2)CC1 [SHP099 dihydrochloride] | 0.91 | 0.963 |
| CCOc1cc2ncc(C#N)c(Nc3ccc(OCc4ccccn4)c(Cl)c3)c2cc1NC(=O)/C=C/CN(C)C [Neratinib (HKI-272)] | 0.638 | 0.893 |
